Results reported in publication PMC11784839, “Monoaminergic neurotransmitters are bimodal effectors of tau aggregation” (Science Advances, 2025).
*1 amine or outer side, *2 acyl side, *3 side chain or, on linkers, in order; H or OH if unused. Where a SMILES comes first, the peptide text is derived from it. Bridges are numbered along the chain shown (N, C = ends). [ ]: non-standard residue; d: D form. hTyr(3S-OH,4S-OH,3'-OSO3H) = N[C@H](C(=O)O)[C@H](O)[C@@H](O)c1ccc(O)c(OS(=O)(=O)O)c1; Orn(4R-OH,5R-OH) = O=C([C@H](C[C@@H](O)[C@@H](O)N[*:3])N[*:1])[*:2]; Pro(3S-OH,4S-Me) = C[C@H]1CN[C@H](C(=O)O)[C@H]1O; Gln(3R-OH) = NC(=O)C[C@@H](O)[C@H](N)C(=O)O; Hyp = O=C(O)[C@@H]1C[C@@H](O)CN1

Biological target: tau (Homo sapiens, UniProt P10636)
Sequence (P10636 623-695 limits assumed): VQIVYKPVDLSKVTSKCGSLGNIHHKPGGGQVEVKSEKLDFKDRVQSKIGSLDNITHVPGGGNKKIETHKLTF
Assay: MCE Phenols Library screening, tau biosensor cell seeding assay (AvZ)
Assay type: cell-based
Conditions: for Z repl 1 / Z Repl 2: Z score; for Z repl 1 / raw data 1: replicate 1; for Z Repl 2 / raw data 2: replicate 2; for AvZ (average z score of seeding, SDs from the mean level of seeding): 10 μM phenol in cell cultures, AD brain homogenate preincubated 16 hours, two biological replicates, positive = catalyzes seeding, negative = inhibits
[1] = average Z score of the two replicates, tau biosensor seeding, MCE Phenols Library screen
[2] = average Z score of the two replicates, MCE Phenols Library screen
[3] = average puncta of the two replicates
[4] = average Z score of the two replicates, tau seeding
[5] = average Z score of two replicates, Phenols Library screen

SMILES: COc1ccc(-c2cc(=O)c3c(O)c(OC)c(OC)cc3o2)cc1O [Eupatorin]
- Z repl 1: 0.938
- Z Repl 2: 0.779
- av Z [1]: 0.859
- av puncta (average of raw data 1 and 2): 29352.8
- raw data 1 (puncta): 37615.7
- raw data 2 (puncta): 21089.9

SMILES: C[C@@H](O)[C@@H]1NC(=O)[C@@H](N)C[C@@H](O)[C@@H](O)NC(=O)[C@@H]2[C@@H](O)[C@@H](C)CN2C(=O)[C@H]([C@H](O)CC(N)=O)NC(=O)[C@H]([C@H](O)[C@@H](O)c2ccc(O)c(OS(=O)(=O)O)c2)NC(=O)[C@@H]2C[C@@H](O)CN2C1=O [FR179642] (H-[Orn(4R-OH,5R-OH)]T[Hyp][hTyr(3S-OH,4S-OH,3'-OSO3H)][Gln(3R-OH)][Pro(3S-OH,4S-Me)]; lactam 1-C)
- Z repl 1: 1.095
- Z Repl 2: 0.887
- av Z [1]: 0.991
- av puncta (average of raw data 1 and 2): 30866.7
- raw data 1 (puncta): 39497.8
- raw data 2 (puncta): 22235.7

SMILES: Cc1c(O)c(C)c2c(c1O)C(=O)C[C@@H](c1ccc(O)cc1)O2 [Farrerol]
- Z repl 1: -0.382
- Z Repl 2: -0.766
- av Z [2]: -0.574
- av puncta [3]: 13173.8
- raw data 1 (puncta): 21763
- raw data 2 (puncta): 4584.63

SMILES: COc1cc(/C=C/C(=O)[O-])ccc1O.[Na+] [Ferulic acid (sodium)]
- AvZ (average z score of seeding, SDs from the mean level of seeding): -0.669
- Z repl 1: -1.081
- Z Repl 2: -0.257
- av puncta [3]: 11696.2
- raw data 1 (puncta): 13369.9
- raw data 2 (puncta): 10022.5

SMILES: COc1cc(/C=C/C(=O)O)ccc1O [Ferulic acid]
- AvZ (average z score of seeding, SDs from the mean level of seeding): -0.451
- Z repl 1: -0.555
- Z Repl 2: -0.346
- av puncta [3]: 14374.8
- raw data 1 (raw puncta): 19680.6
- raw data 2 (raw puncta): 9068.99

SMILES: CCc1c(Cl)c(O)c(Cl)c(O)c1C(=O)O[C@H]1[C@H](O)[C@H](OC)[C@H](OC/C2=C\C=C\C[C@H](O)/C(C)=C/[C@H](CC)[C@@H](O[C@@H]3OC(C)(C)[C@@H](OC(=O)C(C)C)[C@H](O)[C@@H]3O)/C(C)=C/C(C)=C/C[C@@H]([C@@H](C)O)OC2=O)O[C@@H]1C [Fidaxomicin]
- Z repl 1: 0.356
- Z Repl 2: 0.717
- av Z [4]: 0.537
- av puncta (average of raw data 1 and 2): 25523.7
- raw data 1 (puncta): 30618.6
- raw data 2 (puncta): 20428.7

SMILES: O=c1c(O)c(-c2ccc(O)c(O)c2)oc2cc(O)ccc12 [Fisetin]
- Z repl 1: -1.392
- Z Repl 2: -0.758
- av Z [2]: -1.075
- av puncta (average of raw data 1 and 2): 7157.01
- raw data 1 (puncta): 9642.85
- raw data 2 (puncta): 4671.16

SMILES: O=C1C[C@@H](c2ccc(O)c(O)c2)Oc2c1ccc(O[C@@H]1O[C@H](CO)[C@@H](O)[C@H](O)[C@H]1O)c2O [Flavanomarein]
- Z repl 1: -0.895
- Z Repl 2: -0.498
- av Z [2]: -0.697
- av puncta [3]: 11525.3
- raw data 1 (puncta): 15599.3
- raw data 2 (puncta): 7451.23

SMILES: COc1cc(O)c(C(=O)/C=C/c2ccccc2)c(OC)c1 [Flavokawain B]
- Z repl 1: -0.296
- Z Repl 2: -0.062
- av Z [5]: -0.179
- av puncta (average of raw data 1 and 2): 17449.7
- raw data 1 (puncta): 22793.1
- raw data 2 (puncta): 12106.3

SMILES: COc1cc(O)c(C(=O)/C=C/c2ccc(O)cc2)c(OC)c1 [Flavokawain C]
- Z repl 1: -0.666
- Z Repl 2: -0.177
- av Z [2]: -0.422
- av puncta [3]: 14614.7
- raw data 1 (raw puncta): 18356
- raw data 2 (raw puncta): 10873.4

SMILES: C[C@@H]1O[C@@H](OC[C@H]2O[C@@H](OCCc3ccc(O)c(O)c3)[C@H](O)[C@@H](O)[C@@H]2OC(=O)/C=C/c2ccc(O)c(O)c2)[C@H](O)[C@H](O)[C@H]1O [Forsythiaside A]
- Z repl 1: 0.23
- Z Repl 2: -0.492
- av Z [5]: -0.131
- av puncta (average of raw data 1 and 2): 18310.1
- raw data 1 (puncta): 29105.9
- raw data 2 (puncta): 7514.37

SMILES: C[C@@H]1O[C@@H](OC[C@H]2O[C@@H](OCCc3ccc(O)c(O)c3)[C@H](O)[C@@H](OC(=O)/C=C/c3ccc(O)c(O)c3)[C@@H]2O)[C@H](O)[C@H](O)[C@H]1O [Forsythoside I]
- Z repl 1: -1.102
- Z Repl 2: -0.666
- av Z [2]: -0.884
- av puncta (average of raw data 1 and 2): 9388.55
- raw data 1 (puncta): 13120.4
- raw data 2 (puncta): 5656.67

SMILES: COc1cc2ccc(=O)oc2c(O)c1O [Fraxetin]
- Z repl 1: -0.275
- Z Repl 2: -0.769
- av Z [2]: -0.522
- av puncta [3]: 13803.1
- raw data 1 (puncta): 23050.6
- raw data 2 (puncta): 4555.69

SMILES: COc1cc2ccc(=O)oc2c(O)c1OC [Fraxidin]
- Z repl 1: 0.561
- Z Repl 2: -0.256
- av Z [4]: 0.152
- av puncta (average of raw data 1 and 2): 21554.2
- raw data 1 (puncta): 33079.8
- raw data 2 (puncta): 10028.5

SMILES: COc1cc2ccc(=O)oc2c(O[C@@H]2O[C@H](CO)[C@@H](O)[C@H](O)[C@H]2O)c1O [Fraxin]
- Z repl 1: 0.183
- Z Repl 2: -0.668
- av Z [2]: -0.243
- av puncta [3]: 17088
- raw data 1 (raw puncta): 28547.2
- raw data 2 (raw puncta): 5628.78

SMILES: O=c1c(O)c(-c2ccccc2)oc2cc(O)cc(O)c12 [Galangin]
- Z repl 1: 0.212
- Z Repl 2: -0.203
- av Z [5]: 0.004
- av puncta (average of raw data 1 and 2): 19744.8
- raw data 1 (puncta): 28893.6
- raw data 2 (puncta): 10595.9

SMILES: O.O=C(O)c1cc(O)c(O)c(O)c1 [Gallic acid (hydrate)]
- AvZ (average z score of seeding, SDs from the mean level of seeding): -1.246
- Z repl 1: -1.396
- Z Repl 2: -1.097
- av puncta (average of raw data 1 and 2): 5320.33
- raw data 1 (puncta): 9587.18
- raw data 2 (puncta): 1053.49

SMILES: O=C(O)c1cc(O)c(O)c(O)c1 [Gallic acid]
- AvZ (average z score of seeding, SDs from the mean level of seeding): -1.627
- Z repl 1: -2.072
- Z Repl 2: -1.182
- av puncta (average of raw data 1 and 2): 803.018
- raw data 1 (puncta): 1468.86
- raw data 2 (puncta): 137.18

SMILES: CC(C)=CCC/C(C)=C/Cc1c(O)c(CC=C(C)C)c2c(c1O)C(=O)C1=C[C@@H]3C[C@H]4C(C)(C)O[C@@](C/C=C(/C)C(=O)O)(C3=O)[C@@]14O2 [Gambogenic acid]
- av Z [2]: -1.587

SMILES: CC(C)=CCC[C@]1(C)C=Cc2c(O)c3c(c(CC=C(C)C)c2O1)O[C@]12C(=C[C@@H]4C[C@H]1C(C)(C)O[C@@]2(C/C=C(/C)C(=O)O)C4=O)C3=O [Gambogic acid]
- AvZ (average z score of seeding, SDs from the mean level of seeding): -1.57
- Z repl 1: -2.192
- Z Repl 2: -0.952
- av Z [2]: -1.572
- av puncta (average of raw data 1 and 2): 1315.22
- raw data 1 (puncta): 33.834
- raw data 2 (puncta): 2596.6

SMILES: CC(C)=CCc1c(O)cc2oc3cc(O)c(O)c(CC=C(C)C)c3c(=O)c2c1O [Gamma-Mangostin]
- Z repl 1: -0.442
- Z Repl 2: -0.111
- av Z [2]: -0.277
- av puncta [3]: 16310.3
- raw data 1 (raw puncta): 21043.4
- raw data 2 (raw puncta): 11577.2

SMILES: COc1ccc(-c2cc(=O)c3c(O)c(OC)c(OC)c(OC)c3o2)cc1 [Gardenin B]
- Z repl 1: 0.816
- Z Repl 2: 0.967
- av Z [1]: 0.892
- av puncta (average of raw data 1 and 2): 29624.1
- raw data 1 (puncta): 36150
- raw data 2 (puncta): 23098.1

SMILES: OCc1ccc(O[C@@H]2O[C@H](CO)[C@@H](O)[C@H](O)[C@H]2O)cc1 [Gastrodin]
- Z repl 1: -1.05
- Z Repl 2: -0.621
- av Z [2]: -0.836
- av puncta (average of raw data 1 and 2): 9937.48
- raw data 1 (puncta): 13738.4
- raw data 2 (puncta): 6136.55

SMILES: O=c1c(-c2ccc(O)cc2)coc2cc(O)cc(O)c12 [Genistein]
- Z repl 1: 0.361
- Z Repl 2: 0.231
- av Z [4]: 0.296
- av puncta (average of raw data 1 and 2): 22958.3
- raw data 1 (puncta): 30681.6
- raw data 2 (puncta): 15235.1

SMILES: O=c1c(-c2ccc(O)cc2)coc2cc(O[C@@H]3O[C@H](CO)[C@@H](O)[C@H](O)[C@H]3O)cc(O)c12 [Genistin]
- Z repl 1: 0.673
- Z Repl 2: 0.138
- av Z [4]: 0.406
- av puncta (average of raw data 1 and 2): 24334.9
- raw data 1 (puncta): 34427
- raw data 2 (puncta): 14242.8
